Experimental data: US20060263427A1, “Quinine formulations” (priority 2005, published 2006)
Where a name gives a salt, the structure may show the parent alone. Read-outs that look alike come from different tables or passages of the source.

How the values were obtained:
[1] = fasted, non-transformed data, least squares mean
[2] = Mean plasma quinine concentration over 24 hours after single oral dose of Quinine Sulfate (Example 6, Studies 1 and 2); format: in vivo, human; settings: for concentration at 0 h / concentration at 2 h / concentration at 4 h / concentration at 6 h / concentration at 12 h / concentration at 24 h: both sexes, human, plasma, oral
[3] = in vivo
clinical [4] = settings: human, plasma, oral
[5] = 324 mg, 1 capsule, fasted
[6] = QTc interval measurements (ECG) over 24 hours after single oral dose of Quinine Sulfate (Example 6, Studies 1 and 2); format: in vivo, human
clinical [7] = settings: human, in vivo
[8] = 324 mg, Study 1, B: 324 mg capsule, fed
[9] = 324 mg, Study 2, C: 324 mg capsule, fasting
[10] = 648 mg, Study 2, D: 648 mg (two capsules), fasting
[11] = non-transformed data, least squares mean

## C=C[C@H]1C[N@@]2CC[C@H]1C[C@H]2[C@H](O)c1ccnc2ccc(OC)cc12 [Quinine Sulfate, cinchonan-9-ol, 6′-methoxy-, (8α,9R)-, sulfate (2:1)]
[1]; 324 mg, 1 capsule
  kelim: 0.0592
[1]; 648 mg, 2 capsules
  kelim: 0.0572
[2]; Study 2, C: 324 mg capsule, fasting, 0 hours
  Mean Plasma Concentration: 0; ng/ml
[2]; 324 mg, Study 1, B: 324 mg capsule, fed, 0 hours
  concentration at 0 h: 0 ng/mL
[2]; [8]
  concentration at 2 h: 835 ng/mL
  concentration at 4 h: 2260 ng/mL
  concentration at 6 h: 2010 ng/mL
  concentration at 12 h: 1220 ng/mL
  concentration at 24 h: 543 ng/mL
[2]; [9]
  concentration at 2 h: 1860 ng/mL
  concentration at 4 h: 1880 ng/mL
  concentration at 6 h: 1710 ng/mL
  concentration at 12 h: 994 ng/mL
  concentration at 24 h: 475 ng/mL
[2]; 648 mg, Study 2, D: 648 mg (two capsules), fasting, 0 hours
  concentration at 0 h: 0 ng/mL
[2]; [10]
  concentration at 2 h: 2810 ng/mL
  concentration at 4 h: 2950 ng/mL
  concentration at 6 h: 2720 ng/mL
  concentration at 12 h: 1700 ng/mL
  concentration at 24 h: 912 ng/mL
[3]; human, 648 mg
  AUC0-INF: 61817.27 ng·h/mL
  AUC0-t: 56394.65 ng·h/mL
  Cmax: 3174.89 ng/mL
[3]
  dose proportionality of AUCT and AUCinf: proportional increase
  dose proportionality of Cmax: nonlinear dose proportionality
Clinical [4]; 260 mg
  Tmax: 2.61 h
Clinical [4]; 324 mg
  AUC0-t: 30300 ng·h/mL
  AUC(0-inf): 32100 ng·h/mL
  Cmax: 2280 ng/mL
  Tmax: 2.75 h
[5]; Ln-transformed data, geometric mean
  Cmax: 2242.70 ng/mL
[5]; [11]
  AUC0-INF: 33280.89 ng·h/mL
  AUC0-t: 31298.12 ng·h/mL
[6]; 50 subjects, single oral doses 324 mg or 648 mg
  subjects with significant prolongations in QTc interval (>450 msec): seven
[6]; single oral doses, Table 1
  relation of mean QTc value to plasma concentration: an increase in the mean QTc value was found to correspond with the peak quinine plasma concentration
Clinical [7]; 324 mg
  Tmax: 2.78 h
Clinical [7]; 648 mg
  Tmax: 2.8 h
Clinical [7]; 648 mg, AUC0-INF
  AUC(0-inf): 59200 ng·h/mL
Clinical [7]; 648 mg, AUC0-t
  AUC0-t: 54400 ng·h/mL
Clinical [7]; 648 mg, Cmax
  Cmax: 3240 ng/mL
